Measurements reported in patent publication US7914780B1, “Aminopeptidase A (APA) targeting peptides for the treatment of cancer” (Board of Regents, the University of Texas System, priority 2000, dated 2011).
Peptide text beside a SMILES is read from it.

How the values were obtained:
HMECs [1] = assay: Endothelial cell growth assay (crystal violet); assay type: cell-based, human
Experimental: HMECs were seeded (˜10,000 cells/well) and allowed to attach for 24 hours in complete M199 medium (Sigma; St. Louis, Mo.). The indicated concentrations of […] (SEQ ID NO:2) or 1 mM negative control peptide were added to the cells in complete M199 medium. HMECs were then serially fixed in 2.5% glutaraldehyde, stained with 0.1% crystal violet in 20% methanol, and solubilized in 10% acetic acid. Cell growth was evaluated by measuring absorbance at 590 nm. A calibration curve with linear correlation between absorbance and cell number (103-105 HMECs) was used for the assay.
(§1) Because of the enzymatic inhibitory activity of APA-binding peptides, the inventors reasoned that they might affect endothelial cell function. The inventors correlated the effect of APA inhibition by the […] (SEQ ID NO:2) peptide on the migration and proliferation of endothelial cells. The inventors used human dermal microvascular endothelial cells (HMEC) in which the APA expression was verified by immunostaining with RC38 and the APA activity by its specific enzyme assay. […] (SEQ ID NO:2) peptide suppressed the migration of HMECs in the Boyden chamber assay (FIG. 3B). Suppression in cell migration was dose-dependent and commensurate with inhibition of APA enzymatic activity. […] Similarly, proliferation of HMECs was suppressed by […] (SEQ ID NO:2) (˜40% at 1 mM) in a dose-dependent manner (FIG. 3C).

[2] = system: VEGF-induced CAM neovascularization; assay: Chick embryo chorioallantoic membrane (CAM) assay; assay type: in vivo, chicken
Experimental: Fertilized chicken eggs were incubated in constant humidity at 37° C. for 3 days. Two to three ml of albumin was removed through a square opening to detach the developing CAM. The opening was sealed with a glass plate and the eggs were incubated for 5 days. […] […] CAMs were examined daily until day 12, photographed in ovo with a stereomicroscope and emerging capillaries were counted (Ribatti et al., 1997).
In this in vivo model, neovascularization is stimulated with VEGF adsorbed on to a gelatin sponge placed on the CAM. […] CAMs were examined on E12 and neovascularization was quantified by counting the number of emerging capillaries (FIG. 4B). Significant induction of neovascularization (57.0±1.41 blood vessels) was found when a sponge with VEGF was placed on the CAM compared to a sponge with no growth factors (12.0±2.8 blood vessels; t-test, P<0.01). […]

HMECs [3] = assay: Three-dimensional cell culture on Matrigel (cord/tube formation); assay type: cell-based, human
Experimental: Matrigel (BD Biosciences; Bedford, Mass.) was added to 48-well tissue culture plates and allowed to solidify at 37° C. HMECs (˜10^4 cells) were added to the wells and allowed to adhere to the Matrigel for 30 minutes at 37° C. Cell medium was replaced containing the indicated concentrations of […] (SEQ ID NO:2) or a negative control peptide (both at 1 mM) in complete medium. Plates were examined and photographed after 16 hours.
To determine whether inhibition of APA enzyme activity with […] (SEQ ID NO:2) peptide would affect angiogenesis, the effect of the peptide was tested in vitro and in vivo. First, the inventors evaluated the ability of HMECs to differentiate into capillary-like structures characteristic of angiogenesis in the presence of […] (SEQ ID NO:2) on a gel of reconstituted basement membrane matrix (Matrigel). The formation of cord/tube-like structures was progressively impaired by increasing concentrations of […] (SEQ ID NO:2) peptide, relative to the network formation in controls without peptide (FIG. 4A, upper left panel) or with an unrelated control peptide at 1 mM concentration (FIG. 4A, upper right panel). The number and length of capillary-like branching structures was reduced at 0.3 mM […] […]

HMECs [4] = assay: Chemotaxic (Boyden chamber) cell migration assay; assay type: cell-based, human
Experimental: Cell migration assays were performed in a 48-well Boyden chamber (NeuroProbe; Gaithersburg, Md.) as described (Bussolino et al., 1995). Indicated concentrations of […] (SEQ ID NO:2) peptide or negative control peptide (1 mM) were placed in the lower chamber compartment in complete M199 medium. Subconfluent HMECs were harvested and 1×10^5 cells were seeded in the upper chamber compartment in complete M199 medium. Cells were allowed to migrate for 5 h at 37° C. in a humidified 5% CO2 atmosphere. Filter was removed and cells on the upper side were scraped off. Migrated cells were fixed and Giemsa-stained.
as §1

aminopeptidase N = aminopeptidase N (Homo sapiens, UniProt P15144); assay: Aminopeptidase N enzymatic activity; assay type: biochemical
EF43-fgf4-derived tumors = assay: Experimental therapy of EF43-fgf4-derived tumors; assay type: in vivo, Balb/c mice
Experimental: For experimental therapy, Balb/c mice bearing EF43-fgf4-derived tumors were established and tumor volumes determined as described (Deroanne et al., 1997; Hajitou et al., 2001). Treatments in tumor-bearing mice were started 5 (peptides) to 7 days (antibodies) after cell inoculation (10^5 cells/mouse). Reagents were administered by ip and sc routes.
Tumor-bearing mice received vehicle, [sequence] (SEQ ID NO:2) or control peptides and tumors were monitored (FIG. 7B).
The inventors used an established regimen of two anti-APA monoclonal antibodies (ASD-37/41) with synergistic APA inhibitory properties (Assmann et al., 1992, Mentzel et al., 1999) on the same animal model. Tumor-bearing mice received vehicle, ASD-37/41, or isotype control IgG and tumors were monitored (FIG. 7C).

[5] = target: T1, APA-transfected SK-RC-49 cells (Homo sapiens, UniProt Q07075); assay: Cell surface panning of CX3CX3CX3C phage display library on APA-transfected cells; assay type: binding; settings: for Round 2 (%) - share of randomly selected phage clones displaying the sequence: after second round of panning on SK-RC-49/APA cells
T1 construct: stably transfected with a mammalian expression vector encoding the full-length APA cDNA; expressed in transfected cells; host or cells: SK-RC-49 renal carcinoma cells (SK-RC-49/APA)
Experimental: Briefly, 10^10 transducing units (TU) of a CX3CX3CX3C (SEQ ID NO:14; C, cysteine; X, any amino acid residue) phage display random library are pre-absorbed on SK-RC-49 parental cells. The pre-cleared CX3CX3CX3C phage library (˜10^10 TU) is added to 106 detached APA-transfected SK-RC-49 cells in binding medium (20 mM HEPES, 2% FCS in DMEM). Cell panning was performed at 4° C. to minimize post-binding events such as receptor-mediated internalization (Giordano et al., 2001). Cells were washed with binding medium and cell bound phage were recovered and amplified by infection of K91Kan E. coli. Serial dilutions were plated on Luria-Bertani (LB) agar plates with tetracycline and kanamycin. The number of TU was determined by bacterial colony counting.
The inventors pre adsorbed 1010 transducing units (TU) of a CX3CX3CX3C (C, cysteine; X, any amino acid residue; SEQ ID NO:14) phage display random library on SK-RC-49 parental cells. Next, the pre-cleared CX3CX3CX3C (SEQ ID NO:14) phage library (˜1010 TU) was added to 106 detached APA-transfected SK-RC-49 cells in binding medium (20 mM HEPES, 2% FCS in DMEM). Cell panning was performed at 4° C. to minimize post-binding events such as receptor-mediated internalization (Giordano et al., 2001). Cells were washed with binding medium and cell bound phage were recovered and amplified by infection of K91 Kan E. coli. Serial dilutions were plated on Luria-Bertani (LB) agar plates with tetracycline and kanamycin. The number of TU was determined by bacterial colony counting.
To identify peptides capable of binding to APA, the inventors screened APA-transfected cells with a phage display library (Smith and Scott, 1993). The inventors stably transfected SK-RC-49 renal carcinoma cells with a vector expressing full-length APA cDNA. APA functionality was verified in transfected cells by an enzyme activity assay specific for APA.

SK-RC-49/APA cells = target: T2, SK-RC-49/APA cells (Homo sapiens, UniProt Q07075); assay: Phage binding assay on SK-RC-49/APA cells versus SK-RC-49 cells; settings: for Phage binding to SK-RC-49/APA cells relative to SK-RC-49 cells: individual phage clones
T2 construct: stably transfected with a mammalian expression vector encoding the full-length APA cDNA; expressed in transfected cells; host or cells: SK-RC-49 renal carcinoma cells (SK-RC-49/APA)
Experimental: Binding assays were performed on cells with 109 TU phage input. Increasing concentrations of synthetic […] (SEQ ID NO:2) or control peptides were used to evaluate competitive inhibition of phage binding. APA was immunocaptured on microtiter wells with RC38 and incubated with 109 TU of phage in 3% BSA in PBS. Wells were washed with 1% BSA, 0.01% Tween-20 in PBS and phage were recovered by infection of K91kan E. coli. Serial dilutions were plated on LB agar plates containing tetracycline and kanamycin. The number of TU was determined by bacterial colony counting.
Phage displaying enriched peptide motifs were tested individually for APA binding. Phage displaying the inserts […] (SEQ ID NO:3), […] (SEQ ID NO:1) or […] The inventors synthesized peptides containing APA-binding motifs (consensus sequence […] (SEQ ID NO:2); Table 1). Binding of phage displaying […] Binding of […] Whether the selected peptides would bind to the isolated APA protein was also evaluated. […] The inventors used phage displaying […] (SEQ ID NO:3), […] (SEQ ID NO:4), or […] (SEQ ID NO:1) in binding assays to the immunocaptured APA.

[6] = system: MDA-MB-435 human breast carcinoma-derived tumor xenografts; assay: Tumor homing of phage in vivo; set-up: species or system nude mice; settings: intravenous
Experimental: Nude mice bearing tumor xenografts derived from MDA-MB-435 human breast cancer cells were generated as described (Arap et al., 1998). 109 TU of […] (SEQ ID NO:8)-displaying phage or fd-tet phage were injected intravenously to anesthetized mice. Phage were allowed to circulate for 5 minutes and the animals were perfused through the left ventricle of the heart with DMEM. The tumor and control organs were dissected and equal amounts of tissue were homogenized. Homogenates were washed with ice-cold DMEM containing a protease inhibitor cocktail (Sigma; St. Louis, Mo.) and 0.1% BSA. Tissue-bound phage were recovered as described above the cell panning. Tissue samples from the injected animals were fixed, sectioned at 5 μm and stained with an anti-M13 antibody.
The inventors next evaluated the ability of APA binding peptides to home to tumor blood vessels in vivo. Phage were administered intravenously to nude mice bearing human breast carcinoma MDA-MB-435-derived xenografts. Phage homing was quantified by recovery from tissue homogenates by bacterial infection. […] […] Homing of […] (SEQ ID NO:3) phage to tumor vasculature was confirmed by immunohistochemical staining of phage on tissue sections.

[7] = 1 mM peptide in VEGF-adsorbed sponge, E12
[8] = competition with synthetic peptide
[9] = negative control peptide (1 mM)

T1 sequence (Q07075 whole entry): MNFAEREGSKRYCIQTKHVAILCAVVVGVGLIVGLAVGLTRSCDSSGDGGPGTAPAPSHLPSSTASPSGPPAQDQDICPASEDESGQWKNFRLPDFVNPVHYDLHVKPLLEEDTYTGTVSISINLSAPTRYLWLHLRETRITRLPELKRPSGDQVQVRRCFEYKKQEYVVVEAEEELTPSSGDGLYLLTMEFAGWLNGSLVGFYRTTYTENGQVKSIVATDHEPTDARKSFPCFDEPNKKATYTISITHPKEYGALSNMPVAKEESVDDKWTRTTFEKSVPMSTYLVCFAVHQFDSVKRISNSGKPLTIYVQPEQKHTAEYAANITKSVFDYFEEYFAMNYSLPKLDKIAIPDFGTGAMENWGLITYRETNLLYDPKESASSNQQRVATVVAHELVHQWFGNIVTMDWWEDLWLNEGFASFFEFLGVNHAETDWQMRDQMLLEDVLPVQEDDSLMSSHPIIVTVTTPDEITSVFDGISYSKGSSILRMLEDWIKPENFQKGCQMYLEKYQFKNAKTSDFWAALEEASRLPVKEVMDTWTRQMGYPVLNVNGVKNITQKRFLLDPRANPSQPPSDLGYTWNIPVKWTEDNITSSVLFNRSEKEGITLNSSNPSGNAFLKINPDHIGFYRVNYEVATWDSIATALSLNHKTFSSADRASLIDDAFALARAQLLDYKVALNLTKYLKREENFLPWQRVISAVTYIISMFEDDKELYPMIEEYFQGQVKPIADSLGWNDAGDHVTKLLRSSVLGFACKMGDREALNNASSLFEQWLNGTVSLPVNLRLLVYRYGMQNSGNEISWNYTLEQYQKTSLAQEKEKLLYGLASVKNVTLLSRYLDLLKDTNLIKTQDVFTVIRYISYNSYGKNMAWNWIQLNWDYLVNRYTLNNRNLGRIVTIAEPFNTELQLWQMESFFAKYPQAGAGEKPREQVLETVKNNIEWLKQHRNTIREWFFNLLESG
T2 sequence (Q07075 whole entry): as above
Sequence of aminopeptidase N (P15144 whole entry, species assumed): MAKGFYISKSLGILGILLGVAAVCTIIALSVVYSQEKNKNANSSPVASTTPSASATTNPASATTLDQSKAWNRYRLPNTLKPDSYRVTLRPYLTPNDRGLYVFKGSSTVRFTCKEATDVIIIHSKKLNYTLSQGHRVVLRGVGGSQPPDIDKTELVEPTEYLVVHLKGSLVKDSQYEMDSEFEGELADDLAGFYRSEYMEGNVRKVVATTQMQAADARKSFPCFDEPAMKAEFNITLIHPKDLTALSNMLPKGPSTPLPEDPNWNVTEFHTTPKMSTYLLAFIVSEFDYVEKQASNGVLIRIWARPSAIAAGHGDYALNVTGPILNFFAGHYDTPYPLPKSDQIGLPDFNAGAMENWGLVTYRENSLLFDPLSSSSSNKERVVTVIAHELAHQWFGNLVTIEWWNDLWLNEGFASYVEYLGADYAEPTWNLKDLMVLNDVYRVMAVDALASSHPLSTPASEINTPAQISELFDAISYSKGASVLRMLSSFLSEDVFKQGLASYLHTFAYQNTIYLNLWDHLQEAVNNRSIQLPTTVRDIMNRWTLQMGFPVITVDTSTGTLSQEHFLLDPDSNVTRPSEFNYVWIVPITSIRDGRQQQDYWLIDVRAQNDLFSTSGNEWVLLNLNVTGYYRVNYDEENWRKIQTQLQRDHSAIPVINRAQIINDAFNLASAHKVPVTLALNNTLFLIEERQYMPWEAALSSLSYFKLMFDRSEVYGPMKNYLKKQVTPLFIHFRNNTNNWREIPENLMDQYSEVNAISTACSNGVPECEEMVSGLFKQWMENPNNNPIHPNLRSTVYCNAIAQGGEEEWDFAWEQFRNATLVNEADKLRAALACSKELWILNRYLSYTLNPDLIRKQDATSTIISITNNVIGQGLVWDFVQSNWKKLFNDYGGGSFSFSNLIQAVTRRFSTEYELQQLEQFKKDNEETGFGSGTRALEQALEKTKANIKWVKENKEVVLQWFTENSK

CC[C@H](C)[C@H](NC(=O)[C@H](CO)NC(=O)[C@H](CCC(=O)O)NC(=O)[C@H](CS)NC(=O)[C@H](CCC(=O)O)NC(=O)[C@H](CCCNC(=N)N)NC(=O)[C@@H]1CCCN1C(=O)[C@@H](N)CS)C(=O)N[C@@H](CS)C(=O)O (H-CPRECESIC-OH)
Inhibition of cell proliferation (HMECs [1]; 0.3 mM peptide): Inhibition of cell proliferation was also observed | Suppression of proliferation of HMECs (HMECs [1]; 1 mM peptide): ~40% | Effect on cell proliferation (HMECs [1]; peptide concentrations lower than 0.3 mM): no significant effect | Effect on number or branching of the growing blood vessels ([2]; 0.1 mM and 0.3 mM peptide): did not affect | Inhibition of VEGF-induced CAM neovascularization [2, 7]: 40% | Number of emerging capillaries [2, 7]: 35.5±1.4 blood vessels | Number and length of capillary-like branching structures (HMECs [3]; 0.3 mM peptide): reduced | Cell interconnections and capillary network organization (HMECs [3]; 1 mM peptide): severely lost | Inhibition of cell migration (HMECs [4]; 100 μM peptide): significant inhibition | Suppression in cell migration (HMECs [4]; 1 mM peptide, 5 h): Up to 60% | Effect on enzymatic activity of aminopeptidase N (aminopeptidase N): did not affect | Tumor volume (EF43-fgf4-derived tumors; peptides 250 μg/mouse/dose, end of two weeks): 1,366±190 mm^3

CAVACWADCQLGC
Round 2 (%) - share of randomly selected phage clones displaying the sequence [5]: 5%

CGTGCAVECEVVC
Round 2 (%) - share of randomly selected phage clones displaying the sequence [5]: 5%

CLGQCASICVNDC
Effect of synthetic […] peptide on phage binding to SK-RC-49/APA cells (SK-RC-49/APA cells; [8]): not affected by the synthetic peptide | Phage binding to SK-RC-49/APA cells relative to SK-RC-49 cells (SK-RC-49/APA cells): preferentially bound to SK-RC-49/APA cells | Round 2 (%) - share of randomly selected phage clones displaying the sequence [5]: 5%

CPKVCPRECESNC (phage-displayed)
Phage homing by recovery from tissue homogenates ([6]; tumor versus control organs (brain)): enriched in tumors compared to control organs | Phage homing by immunohistochemical staining of tissue sections ([6]; tumor versus normal brain blood vessels): Strong phage staining was observed in tumor blood vessels | Effect of synthetic […] peptide on phage binding to SK-RC-49/APA cells (SK-RC-49/APA cells; [8]): inhibited by the synthetic peptide | Phage binding to SK-RC-49/APA cells relative to SK-RC-49 cells (SK-RC-49/APA cells): preferentially bound to SK-RC-49/APA cells | Round 2 (%) - share of randomly selected phage clones displaying the sequence [5]: 5%

CPRECESN
Efficacy in vivo (EF43-fgf4-derived tumors; mouse, in vivo): showed efficacy in vivo

CSGLCTVQCLEGC (phage-displayed)
Round 2 (%) - share of randomly selected phage clones displaying the sequence [5]: 5%

CSMMCLEGCDDWC (phage-displayed)
Round 2 (%) - share of randomly selected phage clones displaying the sequence [5]: 5%

CYNLCIRECESICGADGACWTWCADGCSRSC (phage-displayed)
Effect of synthetic CPRECESIC peptide on phage binding to SK-RC-49/APA cells (SK-RC-49/APA cells; [8]): inhibited by the synthetic peptide | Phage binding to SK-RC-49/APA cells relative to SK-RC-49 cells (SK-RC-49/APA cells): preferentially bound to SK-RC-49/APA cells | Round 2 (%) - share of randomly selected phage clones displaying the sequence [5]: 50% | Round 3 (%) - share of randomly selected phage clones displaying the sequence ([5]; after third round of panning on SK-RC-49/APA cells): 100%

GACVRLSACGA [negative control peptide, unrelated synthetic peptide used as a negative control unless otherwise indicated, reference compound]
Effect on cell proliferation (HMECs [1]; [9]): affected neither cell migration nor proliferation | Number of emerging capillaries [2, 7]: 56.5±2.12 blood vessels | Effect on cell migration (HMECs [4]; [9]): affected neither cell migration nor proliferation
